Measured values: article PMC12090182, “Repurposing of the RIPK1-Selective Benzo[1,4]oxazepin-4-one Scaffold for the Development of a Type III LIMK1/2 Inhibitor” (ACS Chemical Biology, 2025)

Tests used:
Assay type in all cases: cell-based
[1] = biological target: ERN1 (Homo sapiens, UniProt O75460); settings: HEK-293T; 1 μM inhibitor, HEK293T cells
How it was run: (§1)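 Intracellular target engagement measured by NanoBRET in HEK293T cells, with kinases expressed 20 h post-transfection. The inhibitor, at 1 μM, competed with Tracer K10 dosed per kit manual. Occupancy follows from 450 nm/610 nm emission.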

[2] = biological target: CDK5 (Homo sapiens, UniProt Q00535); settings: HEK-293T; 1 μM inhibitor, HEK293T cells
How it was run: as §1

[3] = biological target: CDK7 (Homo sapiens, UniProt P50613); settings: HEK-293T; 1 μM inhibitor, HEK293T cells
How it was run: as §1

[4] = biological target: AURKA (Homo sapiens, UniProt O14965); settings: HEK-293T; 1 μM inhibitor, HEK293T cells
How it was run: as §1

[5] = biological target: MAP3K3 (Homo sapiens, UniProt Q99759); settings: HEK-293T; 1 μM inhibitor, HEK293T cells
How it was run: as §1

[6] = biological target: CDKL3 (Homo sapiens, UniProt Q8IVW4); settings: HEK-293T; 1 μM inhibitor, HEK293T cells
How it was run: as §1

[7] = biological target: PRKX (Homo sapiens, UniProt P51817); settings: HEK-293T; 1 μM inhibitor, HEK293T cells
How it was run: as §1

[8] = biological target: MAPK6 (Homo sapiens, UniProt Q16659); settings: HEK-293T; 1 μM inhibitor, HEK293T cells
How it was run: as §1

[9] = biological target: SRMS (Homo sapiens, UniProt Q9H3Y6); settings: HEK-293T; 1 μM inhibitor, HEK293T cells
How it was run: as §1

[10] = biological target: EPHA6 (Homo sapiens, UniProt Q9UF33); settings: HEK-293T; 1 μM inhibitor, HEK293T cells
How it was run: as §1

[11] = biological target: DCLK3 (Homo sapiens, UniProt Q9C098); settings: HEK-293T; 1 μM inhibitor, HEK293T cells
How it was run: as §1

[12] = biological target: LRRK2 (Homo sapiens, UniProt Q5S007); settings: HEK-293T; 1 μM inhibitor, HEK293T cells
How it was run: as §1

[13] = biological target: MAST3 (Homo sapiens, UniProt O60307); settings: HEK-293T; 1 μM inhibitor, HEK293T cells
How it was run: as §1

[14] = biological target: STK10 (Homo sapiens, UniProt O94804); settings: HEK-293T; 1 μM inhibitor, HEK293T cells
How it was run: as §1

[15] = biological target: PTK2 (Homo sapiens, UniProt Q05397); settings: 1 μM inhibitor, HEK293T cells
How it was run: as §1

[16] = biological target: CSNK2A1 (Homo sapiens, UniProt P68400); settings: HEK-293T; 1 μM inhibitor, HEK293T cells
How it was run: as §1

[17] = biological target: CSNK1G2 (Homo sapiens, UniProt P78368); settings: HEK-293T; 1 μM inhibitor, HEK293T cells
How it was run: as §1

[18] = biological target: CDK3 (Homo sapiens, UniProt Q00526); settings: HEK-293T; 1 μM inhibitor, HEK293T cells
How it was run: as §1

[19] = biological target: FES (Homo sapiens, UniProt P07332); settings: HEK-293T; 1 μM inhibitor, HEK293T cells
How it was run: as §1

[20] = biological target: MAP3K10 (Homo sapiens, UniProt Q02779); settings: HEK-293T; 1 μM inhibitor, HEK293T cells
How it was run: as §1

[21] = biological target: STK38L (Homo sapiens, UniProt Q9Y2H1); settings: HEK-293T; 1 μM inhibitor, HEK293T cells
How it was run: as §1

[22] = biological target: ERN2 (Homo sapiens, UniProt Q76MJ5); settings: HEK-293T; 1 μM inhibitor, HEK293T cells
How it was run: as §1

[23] = biological target: MAPK11 (Homo sapiens, UniProt Q15759); settings: HEK-293T; 1 μM inhibitor, HEK293T cells
How it was run: as §1

[24] = biological target: LATS1 (Homo sapiens, UniProt O95835); settings: HEK-293T; 1 μM inhibitor, HEK293T cells
How it was run: as §1

[25] = biological target: NUAK1 (Homo sapiens, UniProt O60285); settings: HEK-293T; 1 μM inhibitor, HEK293T cells
How it was run: as §1

[26] = biological target: BRSK1 (Homo sapiens, UniProt Q8TDC3); settings: HEK-293T; 1 μM inhibitor, HEK293T cells
How it was run: as §1

[27] = biological target: CAMK2D (Homo sapiens, UniProt Q13557); settings: HEK-293T; 1 μM inhibitor, HEK293T cells
How it was run: as §1

[28] = biological target: CDK4 (Homo sapiens, UniProt P11802); settings: HEK-293T; 1 μM inhibitor, HEK293T cells
How it was run: as §1

[29] = biological target: EPHB4 (Homo sapiens, UniProt P54760); settings: HEK-293T; 1 μM inhibitor, HEK293T cells
How it was run: as §1

[30] = biological target: ICK (Homo sapiens, UniProt Q9UPZ9); settings: HEK-293T; 1 μM inhibitor, HEK293T cells
How it was run: as §1

[31] = biological target: MAP4K1 (Homo sapiens, UniProt Q92918); settings: HEK-293T; 1 μM inhibitor, HEK293T cells
How it was run: as §1

[32] = biological target: STK16 (Homo sapiens, UniProt O75716); settings: HEK-293T; 1 μM inhibitor, HEK293T cells
How it was run: as §1

[33] = biological target: AURKC (Homo sapiens, UniProt Q9UQB9); settings: HEK-293T; 1 μM inhibitor, HEK293T cells
How it was run: as §1

[34] = biological target: AXL (Homo sapiens, UniProt P30530); settings: HEK-293T; 1 μM inhibitor, HEK293T cells
How it was run: as §1

[35] = biological target: MAP4K3 (Homo sapiens, UniProt Q8IVH8); settings: HEK-293T; 1 μM inhibitor, HEK293T cells
How it was run: as §1

[36] = biological target: LTK (Homo sapiens, UniProt P29376); settings: 1 μM inhibitor, HEK293T cells
How it was run: as §1

[37] = biological target: SIK1 (Homo sapiens, UniProt P57059); settings: HEK-293T; 1 μM inhibitor, HEK293T cells
How it was run: as §1

LATS1, sequence (O95835 whole entry): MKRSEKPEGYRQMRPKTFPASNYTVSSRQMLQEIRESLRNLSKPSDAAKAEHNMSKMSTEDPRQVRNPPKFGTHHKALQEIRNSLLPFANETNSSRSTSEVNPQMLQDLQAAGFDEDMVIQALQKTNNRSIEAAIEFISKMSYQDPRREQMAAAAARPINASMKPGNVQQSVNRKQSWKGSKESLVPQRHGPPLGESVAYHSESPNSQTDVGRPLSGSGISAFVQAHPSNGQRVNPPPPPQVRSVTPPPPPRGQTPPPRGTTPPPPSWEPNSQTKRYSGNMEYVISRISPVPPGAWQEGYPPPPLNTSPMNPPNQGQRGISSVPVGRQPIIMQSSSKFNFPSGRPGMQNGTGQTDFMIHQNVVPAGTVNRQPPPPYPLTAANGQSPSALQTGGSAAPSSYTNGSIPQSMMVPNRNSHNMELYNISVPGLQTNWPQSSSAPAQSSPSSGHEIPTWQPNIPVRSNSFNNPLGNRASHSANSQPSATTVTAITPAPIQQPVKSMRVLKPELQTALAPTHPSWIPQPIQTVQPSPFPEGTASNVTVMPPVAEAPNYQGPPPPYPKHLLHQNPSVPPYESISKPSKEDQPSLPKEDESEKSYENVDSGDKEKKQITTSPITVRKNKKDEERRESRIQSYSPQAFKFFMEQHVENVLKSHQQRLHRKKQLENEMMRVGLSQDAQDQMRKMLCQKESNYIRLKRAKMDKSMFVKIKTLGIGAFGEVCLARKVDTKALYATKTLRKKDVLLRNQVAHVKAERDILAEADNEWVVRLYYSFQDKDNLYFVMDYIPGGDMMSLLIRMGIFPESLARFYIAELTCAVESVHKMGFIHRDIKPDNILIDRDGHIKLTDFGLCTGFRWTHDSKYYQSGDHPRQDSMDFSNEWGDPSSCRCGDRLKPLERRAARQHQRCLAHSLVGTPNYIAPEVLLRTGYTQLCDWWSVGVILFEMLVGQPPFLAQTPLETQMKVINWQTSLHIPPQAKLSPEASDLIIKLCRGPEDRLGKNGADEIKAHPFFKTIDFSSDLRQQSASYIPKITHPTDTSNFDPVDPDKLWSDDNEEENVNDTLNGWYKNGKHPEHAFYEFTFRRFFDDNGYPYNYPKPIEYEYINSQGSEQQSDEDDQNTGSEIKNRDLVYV
CDK7, sequence (P50613 whole entry): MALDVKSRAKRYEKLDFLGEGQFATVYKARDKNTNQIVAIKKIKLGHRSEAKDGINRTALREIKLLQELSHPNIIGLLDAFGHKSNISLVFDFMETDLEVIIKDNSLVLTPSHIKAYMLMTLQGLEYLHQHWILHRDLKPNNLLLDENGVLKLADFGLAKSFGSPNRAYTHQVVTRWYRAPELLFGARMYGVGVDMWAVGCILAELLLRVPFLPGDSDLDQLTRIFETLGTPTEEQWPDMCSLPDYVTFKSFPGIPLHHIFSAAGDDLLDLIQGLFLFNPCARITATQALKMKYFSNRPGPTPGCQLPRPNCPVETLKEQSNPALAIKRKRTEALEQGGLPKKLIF
CAMK2D, sequence (Q13557 whole entry): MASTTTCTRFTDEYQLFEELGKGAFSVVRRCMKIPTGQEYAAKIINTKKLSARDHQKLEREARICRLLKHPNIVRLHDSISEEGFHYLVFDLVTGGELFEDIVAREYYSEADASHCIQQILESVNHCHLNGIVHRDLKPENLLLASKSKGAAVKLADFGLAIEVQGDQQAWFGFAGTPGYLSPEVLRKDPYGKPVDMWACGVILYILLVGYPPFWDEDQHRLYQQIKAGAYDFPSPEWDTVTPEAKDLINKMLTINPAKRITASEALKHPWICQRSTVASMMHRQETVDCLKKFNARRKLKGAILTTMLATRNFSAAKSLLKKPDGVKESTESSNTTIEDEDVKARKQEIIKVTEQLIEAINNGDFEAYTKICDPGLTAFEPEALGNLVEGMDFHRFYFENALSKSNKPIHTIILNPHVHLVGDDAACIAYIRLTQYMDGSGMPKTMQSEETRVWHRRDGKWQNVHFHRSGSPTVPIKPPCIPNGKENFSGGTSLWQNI
CDKL3, sequence (Q8IVW4 whole entry): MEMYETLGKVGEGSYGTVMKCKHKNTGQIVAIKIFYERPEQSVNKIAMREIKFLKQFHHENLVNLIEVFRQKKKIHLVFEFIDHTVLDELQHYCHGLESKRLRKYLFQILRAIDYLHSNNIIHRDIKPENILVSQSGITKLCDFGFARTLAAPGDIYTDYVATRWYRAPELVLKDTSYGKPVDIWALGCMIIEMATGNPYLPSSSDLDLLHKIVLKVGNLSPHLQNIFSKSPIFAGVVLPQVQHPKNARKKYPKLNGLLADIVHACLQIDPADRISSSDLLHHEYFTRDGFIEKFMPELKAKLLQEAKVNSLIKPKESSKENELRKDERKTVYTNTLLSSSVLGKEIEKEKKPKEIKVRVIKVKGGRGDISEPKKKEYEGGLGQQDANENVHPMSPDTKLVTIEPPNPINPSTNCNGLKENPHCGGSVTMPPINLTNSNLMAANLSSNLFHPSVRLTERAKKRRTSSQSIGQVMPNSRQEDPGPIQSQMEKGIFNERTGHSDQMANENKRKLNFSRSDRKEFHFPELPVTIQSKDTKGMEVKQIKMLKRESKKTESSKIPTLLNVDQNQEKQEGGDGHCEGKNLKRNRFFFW
MAST3, sequence (O60307 whole entry): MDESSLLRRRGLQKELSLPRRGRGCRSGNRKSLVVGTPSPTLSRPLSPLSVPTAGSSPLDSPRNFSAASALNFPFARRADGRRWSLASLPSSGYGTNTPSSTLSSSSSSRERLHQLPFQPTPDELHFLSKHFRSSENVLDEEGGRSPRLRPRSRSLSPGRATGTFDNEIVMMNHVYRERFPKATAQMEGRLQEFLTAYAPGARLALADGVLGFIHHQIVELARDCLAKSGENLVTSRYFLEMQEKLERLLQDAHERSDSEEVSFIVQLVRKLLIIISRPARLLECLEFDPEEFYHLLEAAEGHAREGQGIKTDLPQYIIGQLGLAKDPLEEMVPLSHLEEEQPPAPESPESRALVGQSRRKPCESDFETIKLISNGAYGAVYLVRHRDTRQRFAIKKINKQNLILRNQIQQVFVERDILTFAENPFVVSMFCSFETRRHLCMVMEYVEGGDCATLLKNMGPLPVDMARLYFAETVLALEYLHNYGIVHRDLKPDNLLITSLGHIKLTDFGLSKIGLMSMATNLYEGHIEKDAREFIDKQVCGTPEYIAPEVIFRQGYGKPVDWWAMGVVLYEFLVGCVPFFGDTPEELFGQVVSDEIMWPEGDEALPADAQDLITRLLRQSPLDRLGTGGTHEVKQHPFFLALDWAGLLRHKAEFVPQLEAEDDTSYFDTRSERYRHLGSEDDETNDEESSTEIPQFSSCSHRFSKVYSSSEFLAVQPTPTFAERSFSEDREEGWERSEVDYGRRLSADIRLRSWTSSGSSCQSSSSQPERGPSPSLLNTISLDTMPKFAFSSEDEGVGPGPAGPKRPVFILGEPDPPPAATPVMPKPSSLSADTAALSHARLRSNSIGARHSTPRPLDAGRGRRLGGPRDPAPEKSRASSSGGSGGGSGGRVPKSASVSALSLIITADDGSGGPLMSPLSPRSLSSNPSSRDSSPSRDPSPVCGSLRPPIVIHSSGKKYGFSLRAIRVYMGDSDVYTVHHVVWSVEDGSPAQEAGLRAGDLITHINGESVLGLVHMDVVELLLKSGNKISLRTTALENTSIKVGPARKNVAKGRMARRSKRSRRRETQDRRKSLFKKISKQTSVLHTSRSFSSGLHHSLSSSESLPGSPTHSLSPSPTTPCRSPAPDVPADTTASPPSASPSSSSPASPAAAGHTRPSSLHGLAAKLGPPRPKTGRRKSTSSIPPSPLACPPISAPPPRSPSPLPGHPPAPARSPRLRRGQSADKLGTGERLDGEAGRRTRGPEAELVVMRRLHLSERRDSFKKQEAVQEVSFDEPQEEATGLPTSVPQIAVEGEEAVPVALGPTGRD
CSNK1G2, sequence (P78368 whole entry): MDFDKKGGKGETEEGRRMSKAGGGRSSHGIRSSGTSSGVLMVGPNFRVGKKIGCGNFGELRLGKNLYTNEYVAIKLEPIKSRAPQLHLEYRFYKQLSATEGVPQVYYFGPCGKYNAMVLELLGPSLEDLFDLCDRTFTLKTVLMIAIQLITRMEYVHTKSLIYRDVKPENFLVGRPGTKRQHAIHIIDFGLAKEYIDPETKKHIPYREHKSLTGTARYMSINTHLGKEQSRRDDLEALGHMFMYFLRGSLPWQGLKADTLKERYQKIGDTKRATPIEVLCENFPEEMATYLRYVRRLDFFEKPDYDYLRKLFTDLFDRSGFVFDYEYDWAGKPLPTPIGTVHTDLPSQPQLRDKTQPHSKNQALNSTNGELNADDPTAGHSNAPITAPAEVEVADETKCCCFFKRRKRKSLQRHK
BRSK1, sequence (Q8TDC3 whole entry): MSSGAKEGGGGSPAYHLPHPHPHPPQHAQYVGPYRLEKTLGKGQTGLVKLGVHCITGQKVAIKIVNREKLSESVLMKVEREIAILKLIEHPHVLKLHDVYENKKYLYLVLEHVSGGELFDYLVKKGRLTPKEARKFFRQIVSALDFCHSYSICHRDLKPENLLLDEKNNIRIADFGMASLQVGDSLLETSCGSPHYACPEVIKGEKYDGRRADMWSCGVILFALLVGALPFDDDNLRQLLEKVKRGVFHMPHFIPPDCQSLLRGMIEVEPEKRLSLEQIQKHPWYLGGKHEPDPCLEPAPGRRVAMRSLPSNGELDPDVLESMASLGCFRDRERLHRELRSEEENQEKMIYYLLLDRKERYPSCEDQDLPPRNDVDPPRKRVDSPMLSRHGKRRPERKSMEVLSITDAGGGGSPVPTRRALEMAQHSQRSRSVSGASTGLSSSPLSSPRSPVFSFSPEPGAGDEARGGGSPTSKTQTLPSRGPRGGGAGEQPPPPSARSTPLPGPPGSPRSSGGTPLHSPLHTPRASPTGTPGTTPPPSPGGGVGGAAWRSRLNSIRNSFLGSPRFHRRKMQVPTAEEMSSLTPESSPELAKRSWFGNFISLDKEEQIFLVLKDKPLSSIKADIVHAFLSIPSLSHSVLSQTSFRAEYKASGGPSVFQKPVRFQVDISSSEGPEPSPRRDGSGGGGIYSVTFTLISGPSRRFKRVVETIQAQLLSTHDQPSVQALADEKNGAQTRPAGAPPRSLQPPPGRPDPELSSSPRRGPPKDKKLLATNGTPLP

## CN1C(=O)[C@@H](N2CCc3c(nn(Cc4ccccc4)c3C(N)=O)C2=O)COc2cc(Cl)ccc21 [Compound 10, (S)-2-benzyl-6-(8-chloro-5-methyl-4-oxo-2,3,4,5-tetrahydrobenzo[b][1,4]oxazepin-3-yl)-7-oxo-4,5,6,7-tetrahydro-2H-pyrazolo[3,4-c]pyridine-3-carboxamide]
[1]
  receptor occupancy at 1 µM: -1.52%
[2]
  receptor occupancy at 1 µM: -9.43%
[3]
  receptor occupancy at 1 µM: -11.3%
[4]
  receptor occupancy at 1 µM: -7.12%
[5]
  receptor occupancy at 1 µM: 5.83%
[6]
  receptor occupancy at 1 µM: 4.18%
[7]
  receptor occupancy at 1 µM: 2.51%
[8]
  receptor occupancy at 1 µM: -8.43%
[9]
  receptor occupancy at 1 µM: 10.1%
[10]
  receptor occupancy at 1 µM: -0.834%
[11]
  receptor occupancy at 1 µM: 2.41%
[12]
  receptor occupancy at 1 µM: 7.3%
[13]
  receptor occupancy at 1 µM: 3.64%
[14]
  receptor occupancy at 1 µM: -3.32%
[15]
  receptor occupancy at 1 µM: -12.2%
[16]
  receptor occupancy at 1 µM: 3.96%
[17]
  receptor occupancy at 1 µM: 3.57%
[18]
  receptor occupancy at 1 µM: -5.32%
[19]
  receptor occupancy at 1 µM: 3.15%
[20]
  receptor occupancy at 1 µM: 3.06%
[21]
  receptor occupancy at 1 µM: 7.45%
[22]
  receptor occupancy at 1 µM: -5.4%
[23]
  receptor occupancy at 1 µM: -1.99%
[24]
  receptor occupancy at 1 µM: -16%
[25]
  receptor occupancy at 1 µM: -4.45%
[26]
  receptor occupancy at 1 µM: 3.37%
[27]
  receptor occupancy at 1 µM: 5.75%
[28]
  receptor occupancy at 1 µM: -9.98%
[29]
  receptor occupancy at 1 µM: 4.16%
[30]
  receptor occupancy at 1 µM: 3.76%
[31]
  receptor occupancy at 1 µM: 3.49%
[32]
  receptor occupancy at 1 µM: -1.63%
[33]
  receptor occupancy at 1 µM: 5.08%
[34]
  receptor occupancy at 1 µM: 2.28%
[35]
  receptor occupancy at 1 µM: -3.75%
[36]
  receptor occupancy at 1 µM: -4.01%
[37]
  receptor occupancy at 1 µM: -3.59%
